This is an account of results in publication PMC12210405, “Identification of chemical scaffolds for targeting ubiquitin-specific protease 11 (USP11) through high-throughput virtual screening” (Journal of Enzyme Inhibition and Medicinal Chemistry, 2025).

Molecules are shown by their SMILES.

For assay [1], the target named is T1, GST-USP11 (Homo sapiens, UniProt P51784).
T1 construct: The plasmids containing the intact USP11 gene were introduced into E. coli BL21-CodonPlus (DE3); made in house; host or cells: E. coli BL21-CodonPlus (DE3)
The assay is described as follows: Fluorescence-based deubiquitinating enzyme activity assay (Ub-AMC fluorogenic substrate). The class given is biochemical. The note with it: for inhibition at 25 µM: read-out: Percent inhibition of USP11. The source says:
The deubiquitinating enzyme (DUB) activity of USP11 was monitored using Ubiquitin AMC (Ub-AMC) (#U-550–050, R&D Systems, Minneapolis, MN, USA) as a fluorogenic substrate. […] USP11 DUB activity of vehicle control or each compound group was quantified by calculating the area under curve (AUC) using Prism 9 software (GraphPad, Boston, MA, USA).
Using a -fluorogenic substrate assay with ubiquitin 7-amido-4-methylcoumarin (Ub-AMC), we tested varying concentrations of both the protein and the substrate. […] Hits were defined as compounds that inhibited enzyme activity by more than 40%, as determined by fluorescence intensity at the 90-min endpoint.

For the next assay, the system named is USP15. The note with it: cited from earlier work.
Assay [2] concerns the target T1, GST-USP11. The assay is described as follows: Biolayer interferometry (BLI) assay. In kind it is binding. The procedure:
The binding affinities of tested compounds for USP11 were determined using BRAND® microplates (#BR781608, Merck, Darmstadt, Germany) and an Octet® R8 system (Sartorius AG, Göttingen, Germany). Octet GST Biosensors (#18–5096, Sartorius AG, Göttingen, Germany) captured with purified GST-USP11 (50 μg/ml) or without proteins were used as ligand sensors or reference sensors, respectively. For binding kinetic measurements, the association and dissociation of tested compounds (3.125–100 μM) in assay buffer (PBS, 0.02% Tween 20, 2% DMSO) were monitored at 25 °C with 1,000 rpm stirring for 90 s. For accurate baseline, wells containing assay buffer only were used as reference wells. All data were analysed by Octet BLI analysis software version 12.2 (Sartorius AG, Göttingen, Germany). The binding graphs were obtained using a double reference subtraction protocol and equilibrium dissociation constant (KD) values were calculated from the ratio of the dissociation rate constant (Kdis) to the association rate constant (Kon).
In general terms: In BLI a coated tip is dipped into the sample, and binding shifts an interference pattern.

[3] abbreviates: compound 25 µM, 90-min endpoint, Ub-AMC.

T1 sequence (P51784 whole entry): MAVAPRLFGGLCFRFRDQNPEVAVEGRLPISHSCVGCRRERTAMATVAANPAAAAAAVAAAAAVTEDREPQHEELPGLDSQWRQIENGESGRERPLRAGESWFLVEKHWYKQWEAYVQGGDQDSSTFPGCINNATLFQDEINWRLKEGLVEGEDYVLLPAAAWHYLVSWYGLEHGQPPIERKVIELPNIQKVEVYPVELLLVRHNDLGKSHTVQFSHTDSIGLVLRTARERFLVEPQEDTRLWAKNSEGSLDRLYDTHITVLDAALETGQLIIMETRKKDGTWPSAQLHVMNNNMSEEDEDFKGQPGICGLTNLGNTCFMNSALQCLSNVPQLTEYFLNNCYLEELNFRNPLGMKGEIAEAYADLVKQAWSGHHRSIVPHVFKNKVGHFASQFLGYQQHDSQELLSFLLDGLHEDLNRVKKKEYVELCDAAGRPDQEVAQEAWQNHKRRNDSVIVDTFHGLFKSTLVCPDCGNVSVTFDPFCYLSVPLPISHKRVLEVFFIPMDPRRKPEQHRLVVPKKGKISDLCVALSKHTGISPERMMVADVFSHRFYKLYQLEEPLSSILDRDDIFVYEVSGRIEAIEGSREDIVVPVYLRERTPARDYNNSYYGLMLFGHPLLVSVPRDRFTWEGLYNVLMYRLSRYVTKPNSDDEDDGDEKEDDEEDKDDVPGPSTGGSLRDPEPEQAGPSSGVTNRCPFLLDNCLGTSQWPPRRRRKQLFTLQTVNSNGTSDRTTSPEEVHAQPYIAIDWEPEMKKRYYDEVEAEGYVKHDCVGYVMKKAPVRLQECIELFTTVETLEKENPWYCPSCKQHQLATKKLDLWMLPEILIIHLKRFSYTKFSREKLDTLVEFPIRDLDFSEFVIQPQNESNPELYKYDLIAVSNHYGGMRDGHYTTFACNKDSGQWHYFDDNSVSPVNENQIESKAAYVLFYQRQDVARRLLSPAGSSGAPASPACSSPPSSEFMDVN

`N#CC1CCCN1C(=O)CNC1CCCN(c2ccc([N+](=O)[O-])c3nonc23)C1` (centres unmarked) [Compound 18]: at GST-USP11 [1] (setting [3]), the inhibition (usually how much of the control response was suppressed) at 25 µM came to 55.8%.

As for `O=[N+]([O-])c1ccc(N2CCCC2)c2nonc12` [Compound 18a], at GST-USP11 [1] (setting [3]), the inhibition at 25 µM worked out at 15%.

With `O=[N+]([O-])c1ccc(N2CCCCC2)c2nonc12` [Compound 18b], the inhibition at 25 µM on GST-USP11 [1] (setting [3]) worked out at 3.3%.

For the molecule `O=[N+]([O-])c1ccc(N2CCCCCC2)c2nonc12` [Compound 18c], at GST-USP11 [1] (setting [3]), the inhibition at 25 µM amounted to 36.9%.

`O=[N+]([O-])c1c(N2CCCCC2)cc(N2CCCCC2)c2nonc12` [Compound 18d]: the inhibition at 25 µM at GST-USP11 [1] (setting [3]) amounted to 27.9%.

As for `NC1CCC(Nc2ccc([N+](=O)[O-])c3nonc23)CC1` (centres unmarked) [Compound 18e], the inhibition at 25 µM at GST-USP11 [1] (setting [3]) is 64.8%.

Take `N#CC1CCCN1C(=O)CNC1CCC(Nc2ccc([N+](=O)[O-])c3nonc23)CC1` (centres unmarked) [Compound 18f]: the inhibition at 25 µM on GST-USP11 [1] (setting [3]) was 23.8%.

As for `N#CC1CC=NN1C(=O)CNC1CCC(Nc2ccc([N+](=O)[O-])c3nonc23)CC1` (centres unmarked) [Compound 18g], at GST-USP11 [1] (setting [3]), the inhibition at 25 µM is 70.9%.

As to `N#CC1CCCN1C(=O)CNCCN1CCN(c2ccc([N+](=O)[O-])c3nonc23)CC1` (centres unmarked) [Compound 18h], the inhibition at 25 µM at GST-USP11 [1] (setting [3]) stood at 7.89%.

On to `O=C(CCc1ccc(F)cc1)N/N=C/c1ccc(O)c(O)c1O` [Compound 29], for which, at GST-USP11 [1] (setting [3]), the inhibition at 25 µM was found to be 41.5%.

`CC(CO)C1CCC2C3C(CCC12C)C1(C)CCC(NCCCCN)C[C@@H]1C[C@H]3O` (some centres unmarked) [Compound 57]: at GST-USP11 [1] (setting [3]), the inhibition at 25 µM amounted to 44.8%.

Turning to `CCCCOc1cc(CN2CCN(c3ccc(NC(=N)c4ccc[nH]4)cc3)CC2)cc(OCCCC)c1O` [Compound 73], the inhibition at 25 µM at GST-USP11 [1] (setting [3]) was found to be 43.9%.

`CCCCCOc1cc(CN2CCN(c3ccc(NC(=N)c4ccc[nH]4)cc3)CC2)cc(OCCCCC)c1O` [Compound 73a]: at GST-USP11 [1] (USP11, Figure S6), inhibition was half-maximal at 17.5 µM (IC50). Besides, on GST-USP11 [1] (setting [3]), the inhibition at 25 µM amounted to 90.3%.

`CCOc1cc(CN2CCN(c3ccc(NC(=N)c4ccc[nH]4)cc3)CC2)cc(OCC)c1O` [Compound 73b]: the inhibition at 25 µM on GST-USP11 [1] (setting [3]) turned out to be 38.1%.

With `CCOc1cc(/C=C/C(=O)N2CCN(c3ccc(NC(=N)c4ccc[nH]4)cc3)CC2)cc(OCC)c1O` [Compound 73c], at GST-USP11 [1] (setting [3]), the inhibition at 25 µM was 76.8%.

Consider `CCCCCOc1cc(CN2CCN(c3ccc(NC(=N)c4cccs4)cc3)CC2)cc(OCCCCC)c1O` [Compound 73d], for which the inhibition at 25 µM at GST-USP11 [1] (setting [3]) came to 23%.

`CCCCOc1cc(CN2CCN(c3ccc(NC(=N)c4cccs4)cc3)CC2)cc(OCCCC)c1O` [Compound 73e]: the inhibition at 25 µM on GST-USP11 [1] (setting [3]) is 23%.

Consider `CCCCOc1cc(/C=C/C(=O)N2CCN(c3ccc(NC(=N)c4ccc[nH]4)cc3)CC2)cc(OCCCC)c1O` [Compound 73f], for which the IC50 (commonly the concentration at which inhibition is half-maximal) at GST-USP11 [1] (USP11, Figure S6) came out at 19.4 µM. Moreover, the inhibition at 25 µM on GST-USP11 [1] (setting [3]) was 89.9%.

Take `NCCNc1ccc(NCCN)c2c1C(=O)c1ccncc1C2=O` [Compound 74a]: the inhibition at 25 µM on GST-USP11 [1] (setting [3]) is 58.4%.

Regarding `Nc1ccc(O)c2c1C(=O)c1c(cccc1[N+](=O)[O-])C2=O` [Compound 74c], the inhibition at 25 µM on GST-USP11 [1] (setting [3]) was 38.1%.

Take `CCOC(=O)CCNc1ccc(Nc2ccc(C)cc2)c2c1C(=O)c1ccccc1C2=O` [Compound 74d]: the inhibition at 25 µM on GST-USP11 [1] (setting [3]) stood at 0%.

For `CN(c1ccc(C=O)cc1)c1cccc2c1C(=O)c1ccccc1C2=O` [Compound 74e], on GST-USP11 [1] (setting [3]), the inhibition at 25 µM was 16.8%.

On to `Nc1ccc(NC(=O)c2ccccc2)c2c1C(=O)c1ccccc1C2=O` [Compound 74f], for which the inhibition at 25 µM on GST-USP11 [1] (setting [3]) worked out at 7.38%.

For `O=C1c2ccccc2C(=O)c2c1cc(N1CCOCC1)cc2N1CCCCC1` [Compound 74g], the inhibition at 25 µM on GST-USP11 [1] (setting [3]) was determined as 6.51%.

Take `O=C1c2c(O)ccc(O)c2C(=O)c2c(NCCNCCO)ccc(NCCNCCO)c21` [Mitoxantrone, mitoxantrone]: the “USP15 inhibition in words” value in the assay with USP15 is reported as “also inhibits USP15”.

For `CC(C)[C@@H](CC[C@@H](C)[C@H]1CC[C@H]2[C@@H]3[C@H](O)C[C@H]4C[C@@H](NCCCNCCCCN)CC[C@]4(C)[C@H]3CC[C@]12C)OS(=O)(=O)O` [Squalamine, squalamine], on GST-USP11 [2], the Kd (usually the constant that tells how readily two partners part at equilibrium) came out at 459 µM. For the same molecule, the on-rate (kon) (as a rule, the second-order rate constant of association) at GST-USP11 [2] (Figure 3c) came out at 1380 M⁻¹ s⁻¹. Further, the koff on GST-USP11 [2] (Figure 3c, read-out: Kdis) came to 0.634 s⁻¹. Also, at GST-USP11 [1] (setting [3]), the “Percent inhibition of USP11” value is “completely inhibits”. Besides, the IC50 at GST-USP11 [1] (recombinant USP11) was 8.29 µM.
